“And” between values parts separate entries of the source, which are not always exact repeats. Identical values can stand only once. Like-named read-outs stand apart in the source and are kept apart here.
Experiments:
CYP3A [1] = test system: CYP3A; set-up: method as in earlier work; conditions: cited from earlier work
CYP3A [2] = assay: PBPK simulation of clinical DDI studies (model verification); set-up: species or system human
Experimental: For verification simulations, the dose and schedule of drugs were matched to the design of the corresponding clinical DDI study performed in healthy volunteers.
The input parameters of these CYP3A substrates are available in the compound library of Simcyp version 21: SV-Ethinylestradiol and Sim-Midazolam. […] For the ivacaftor–ethinylestradiol situation, ivacaftor 150 mg was administered orally twice daily for 28 days, while ethinylestradiol oral 0.035 mg was administered once daily for 21 days.
The PBPK models for posaconazole and voriconazole as CYP3A inhibitors were built according to the publications by Hong and Li et al., respectively. For the posaconazole–tacrolimus DDI study, posaconazole was administered orally at a dose of 400 mg twice daily for 7 days, and a single oral dose of tacrolimus 0.05 mg/kg was administered on day 7. For the voriconazole–tacrolimus DDI, voriconazole was administered orally at a dose of 400 mg twice daily for the first day, followed by 200 mg twice daily for the next 6 days, and a single oral dose of tacrolimus 0.1 mg/kg was administered on day 7.
To quantify the DDIs, the geometric mean ratios of AUC or Cmax in the presence or absence of CYP3A modulators were determined. The assessment of the DDI prediction success was based on whether predictions fell within a twofold range of the observed data.

[3] = Clinical case series: tacrolimus trough levels before and after starting ETI in CF lung transplant recipients; type: in vivo, human
Experimental: This was an IRB-approved, retrospective, single-center cohort study that reviewed all CF lung transplant recipients prescribed ETI post lung transplantation. Patients were included if they were 18 years of age or older with CF, with at least one F508del mutation/minimal function genotype or a mutation in the CFTR gene that is responsive to ETI based on in vitro data. To evaluate the impact of ETI on tacrolimus exposure, tacrolimus trough levels were recorded before and up to one month after starting ETI. Patients had to be clinically stable, with no significant changes in health status, or initiating new medications known to modulate CYP3A4 and/or P-gp one month before or after starting ETI. Patients lost to follow-up or with missing tacrolimus trough levels were excluded.
Collected data included age, sex, weight, baseline lung function, body mass index, CFTR genotype, additional comorbidities, transplant and ETI start dates, ETI and tacrolimus dosing regimens, concurrent CYP3A4 modulators, and tacrolimus blood levels.
Baseline lung function was defined as the highest forced expiratory volume in one second (FEV1) during the year prior to initiating ETI therapy, obtained from routine pulmonary function tests. Percent predicted FEV1 (ppFEV1) was then extrapolated using the Global Lung Function Initiative 2012 prediction equation [35]. Tacrolimus troughs were measured through routine clinical laboratory blood draws and analyzed by validated immunoturbidometric protocols. To assess the effects of ETI, tacrolimus doses and concentrations within one month before and after ETI start were recorded. The steady state for tacrolimus and ETI were estimated to be attained within four to five half-lives after starting a regimen. Tacrolimus troughs were recorded at least 2–3 days after a dose change and 5–6.5 days post ETI initiation, based on elexacaftor’s longest half-life of the three CFTR modulators. Furthermore, to explore potential variability in the adherence to therapy and the timing of blood draws, tacrolimus trough levels within one month post ETI were averaged. For two patients with a changed tacrolimus dose immediately prior to ETI initiation and without a corresponding trough level, we captured the next most recent dose and trough within a three-month period.
All statistical analyses were performed using GraphPad version 8.0.2, with a two-sided significance value of 0.05.

[4] = cited from earlier work
[5] = cited from earlier work; remark: listed apart in the source
Caco-2 cell = test system: Caco-2 cell; set-up: method as in Gertz et al. [22]; conditions: ref Gertz et al. [22]; cited from earlier work
[6] = set-up: method as in Emoto et al. [25]; conditions: ref Emoto et al. [25], cited from earlier work
CYP3A4 [7] = target: CYP3A4 (Homo sapiens, UniProt P08684); set-up: method as in Dai et al. [23]; conditions: ref Dai et al. [23], cited from earlier work
CYP3A4 (Homo sapiens, UniProt P08684), sequence (P08684 whole entry): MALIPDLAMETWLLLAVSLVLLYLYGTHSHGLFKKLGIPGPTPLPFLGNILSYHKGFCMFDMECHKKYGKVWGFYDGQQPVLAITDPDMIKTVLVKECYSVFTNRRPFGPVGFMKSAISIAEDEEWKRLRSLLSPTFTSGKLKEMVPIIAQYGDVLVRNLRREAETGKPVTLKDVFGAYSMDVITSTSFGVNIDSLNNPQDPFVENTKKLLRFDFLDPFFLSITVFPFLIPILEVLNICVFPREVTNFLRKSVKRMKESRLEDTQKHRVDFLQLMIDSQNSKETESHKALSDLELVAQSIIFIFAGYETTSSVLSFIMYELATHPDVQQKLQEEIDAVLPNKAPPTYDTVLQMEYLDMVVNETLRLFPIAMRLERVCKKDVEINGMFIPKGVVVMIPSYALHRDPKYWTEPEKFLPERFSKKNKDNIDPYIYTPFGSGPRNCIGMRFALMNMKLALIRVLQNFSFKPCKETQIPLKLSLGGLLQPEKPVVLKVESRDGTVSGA

CYP3A5 = test system: CYP3A5; set-up: method as in Dai et al. [23]; conditions: ref Dai et al. [23], cited from earlier work
[8] = cited from earlier work; remark: listed apart in the source
[9] = cited from earlier work; remark: listed apart in the source
CYP3A [10] = conditions: cited from earlier work; for AUC ratio: co-administration with posaconazole 400 mg twice daily
[11] = cited from earlier work; remark: listed apart in the source
[12] = PBPK simulation of plasma or blood pharmacokinetics (Simcyp); conditions: single dose oral or intravenous, Cmax and AUC
Text: The PBPK models were implemented within the Simcyp Simulator (version 21; Certara, Sheffield, UK). To mimic the CF population, the distribution of ages and proportion of females were corrected to reflect the demographics of the CF population in the default healthy population library file (Sim-Healthy volunteers) provided in Simcyp® [18]. […] Further, the proportion of females was adjusted from 0.32 in the healthy population to 0.48 in CF. For the trial design, we used a population size of 100 (10 trials with 10 subjects in each trial).
Ivacaftor was orally administered under fed conditions to mimic the clinical setting, where a fat-containing food is required for optimal absorption. The simulated data were qualified using the plasma PK data observed in an adult CF population [11].
The whole-blood PK profiles of tacrolimus following single-dose administration (0.05 mg/kg oral or 0.01 mg/kg iv infusion for 4 h) were simulated to verify the performance of the tacrolimus model. Tacrolimus was administered under fasted conditions to mimic the clinical study. The simulated data were qualified using the blood PK data observed in a healthy adult population [24].
The prediction accuracies for the area under the curve (AUC) and maximum plasma concentration (Cmax) values were calculated as a ratio of mean observed over mean predicted values. […]

CYP3A4 [13] = conditions: set to capture observed DDIs with ketoconazole or rifampin; cited from earlier work
[14] = individual patients 1–13, dose normalized
[15] = tacrolimus 0.05 mg/kg single dose oral, blood, healthy adults
[16] = tacrolimus 0.1 mg/kg single dose iv infusion (4 h), blood, healthy adults
[17] = victim drug +/− ivacaftor 150 mg oral twice daily, healthy volunteers
[18] = ivacaftor 150 mg q12h oral, plasma, adult CF population

Structure (SMILES): CC(C)(CO)c1cc2cc(NC(=O)C3(c4ccc5c(c4)OC(F)(F)O5)CC3)c(F)cc2n1C[C@@H](O)CO [tezacaftor]
- effect on the activity of CYP3A (CYP3A [1]): no significant effect

Structure (SMILES): C=CC[C@@H]1/C=C(\C)C[C@H](C)C[C@H](OC)[C@H]2O[C@@](O)(C(=O)C(=O)N3CCCC[C@H]3C(=O)O[C@H](/C(C)=C/[C@@H]3CC[C@@H](O)[C@H](OC)C3)[C@H](C)[C@@H](O)CC1=O)[C@H](C)C[C@@H]2OC [tacrolimus]
- AUC Ratio, Ratio (Simulated/Observed) (CYP3A [2]; tacrolimus +/− posaconazole): 0.98
- Cmax Ratio, Ratio (Simulated/Observed) (CYP3A [2]; tacrolimus +/− posaconazole): 1.20
- AUC Ratio, Ratio (Simulated/Observed) (CYP3A [2]; tacrolimus +/− voriconazole): 1.07
- Cmax Ratio, Ratio (Simulated/Observed) (CYP3A [2]; tacrolimus +/− voriconazole): 1.00
- predicted AUC and Cmax ratio relative to the observed values (CYP3A [2]; tacrolimus model as victim, DDIs with posaconazole or voriconazole): 0.98 to 1.20
- TAC DN Trough Level, Post-ETI, Median ([3]; N = 13 cohort): 96.12 ng/mL per mg/kg/day
- TAC DN Trough Level, Pre-ETI, Median ([3]; N = 13 cohort): 73.41 ng/mL per mg/kg/day
- TAC Trough Concentration, Post-ETI, Median ([3]; N = 13 cohort): 9.05 ng/mL
- TAC Trough Concentration, Pre-ETI, Median ([3]; N = 13 cohort): 7.50 ng/mL
- Percent Difference DN Trough, Median (increase after starting ETI) ([3]; N = 13 cohort, p = 0.0479): 32%
- TAC Trough Concentration, Post-ETI ([3]; individual patients 1–13, averaged within one month post ETI): 9.50 ng/mL and 3.40 ng/mL and 8.90 ng/mL and 6.10 ng/mL and 5.58 ng/mL and 6.70 ng/mL and 9.05 ng/mL and 15.70 ng/mL and 14.10 ng/mL and 9.75 ng/mL and 9.73 ng/mL and 8.45 ng/mL and 11.30 ng/mL
- Percent Difference DN Trough ([3]; individual patients 1–13, post- vs pre-ETI): 62.10% and −57.76% and 30.93% and −6.95% and −47.69% and 35.60% and 53.90% and 125.51% and 74.90% and 65.49% and 32.22% and −21.64% and 13.23%
- TAC Trough Concentration, Pre-ETI ([3]; individual patients 1–13, within one month before ETI start): 5.60 ng/mL and 7.30 ng/mL and 7.10 ng/mL and 6.60 ng/mL and 11.40 ng/mL and 6.90 ng/mL and 8.40 ng/mL and 7.70 ng/mL and 7.50 ng/mL and 10.40 ng/mL
- TAC DN Trough Level, Post-ETI [3, 14]: 245.10 ng/mL per mg/kg/day and 19.30 ng/mL per mg/kg/day and 96.12 ng/mL per mg/kg/day and 101.40 ng/mL per mg/kg/day and 42.88 ng/mL per mg/kg/day and 62.88 ng/mL per mg/kg/day and 68.78 ng/mL per mg/kg/day and 162.86 ng/mL per mg/kg/day and 82.64 ng/mL per mg/kg/day and 451.10 ng/mL per mg/kg/day and 193.04 ng/mL per mg/kg/day and 54.29 ng/mL per mg/kg/day and 454.83 ng/mL per mg/kg/day
- TAC DN Trough Level, Pre-ETI [3, 14]: 151.20 ng/mL per mg/kg/day and 45.68 ng/mL per mg/kg/day and 73.41 ng/mL per mg/kg/day and 108.97 ng/mL per mg/kg/day and 81.98 ng/mL per mg/kg/day and 46.37 ng/mL per mg/kg/day and 44.69 ng/mL per mg/kg/day and 72.22 ng/mL per mg/kg/day and 47.25 ng/mL per mg/kg/day and 272.58 ng/mL per mg/kg/day and 146.00 ng/mL per mg/kg/day and 69.29 ng/mL per mg/kg/day and 401.70 ng/mL per mg/kg/day
- increase in tacrolimus DN trough levels ([3]; patients on a full dose of ETI): 32%
- increase in tacrolimus DN trough levels ([3]; subgroup of 4 patients on CYP3A4 modulators and reduced ETI dose): 22%
- Compound type ([4]; ref Gertz et al. [21]): Neutral
- Log Po:w ([4]; ref Gertz et al. [21]): 3.3
- B/P (blood-to-plasma ratio) ([5]; ref Gertz et al. [21]): 35
- Caco-2 permeability (Caco-2 cell): 13.1 10^−6 cm/s
- ka (absorption rate constant) ([6]; first-order absorption model): 3.68 h⁻¹
- kin ([6]; minimal PBPK model): 0.68 h⁻¹
- kout ([6]; minimal PBPK model): 0.10 h⁻¹
- Lag time [6]: 0.43 h
- Vsac (single adjusted compartment volume) [6]: 10.8 L/kg
- fa (fraction available from dosage form) [6]: 1.0
- CYP3A4 Vmax (CYP3A4 [7]; 12-hydroxylation): 0.6 pmol/min/pmol CYP
- Km (CYP3A4 [7]; 12-hydroxylation): 0.29 µM
- CYP3A4 Vmax (CYP3A4 [7]; 13-O-desmethylation): 8 pmol/min/pmol CYP
- Km (CYP3A4 [7]; 13-O-desmethylation): 0.21 µM
- CYP3A5 Vmax (CYP3A5; 12-hydroxylation): 1.4 pmol/min/pmol CYP
- Km (CYP3A5; 12-hydroxylation): 0.35 µM
- CYP3A5 Vmax (CYP3A5; 13-O-desmethylation): 17 pmol/min/pmol CYP
- Km (CYP3A5; 13-O-desmethylation): 0.21 µM
- dose excreted unchanged in urine [8]: less than 1%
- unchanged tacrolimus as share of total radioactivity excreted in feces ([8]; in vivo): less than 1%
- Observed AUC (0–108 h) (mean) [9, 15]: 307 ng·h/mL
- Observed Cmax (mean) [9, 15]: 37.8 ng/mL
- Observed AUC (0–264 h) (mean) [9, 16]: 378 ng·h/mL
- Observed Cmax (mean) [9, 16]: 21.4 ng/mL
- AUC ratio (CYP3A [10]): 4.58
- AUC Ratio, Observed GMR (90% CI) (CYP3A [10]; tacrolimus +/− posaconazole): 4.5 (4.0, 5.2)
- Cmax Ratio, Observed GMR (90% CI) (CYP3A [10]; tacrolimus +/− posaconazole): 2.0 (2.0, 2.4)
- AUC Ratio, Observed GMR (90% CI) (CYP3A [10]; tacrolimus +/− voriconazole): 3.0 (2.7, 3.8)
- Cmax Ratio, Observed GMR (90% CI) (CYP3A [10]; tacrolimus +/− voriconazole): 2.0 (1.9, 2.5)
- increase of tacrolimus concentration (CYP3A [10]; with clarithromycin, despite a 64% reduction in the tacrolimus dose): fourfold
- oral bioavailability [11]: < 20%
- bioavailability ([11]; significantly affected by the presence of food): 5–93%
- ratio of the predicted to observed PK parameters [12]: 0.8–1.3

Structure (SMILES): Cc1ncc2n1-c1ccc(Cl)cc1C(c1ccccc1F)=NC2 [midazolam]
- AUC Ratio, Ratio (Simulated/Observed) (CYP3A [2]; victim drug +/− ivacaftor): 1.09
- Cmax Ratio, Ratio (Simulated/Observed) (CYP3A [2]; victim drug +/− ivacaftor): 1.09
- AUC ratio (CYP3A [10]): 4.97
- AUC Ratio, Observed GMR (90% CI) (CYP3A [10]; [17]): 1.54 (1.39, 1.69)
- Cmax Ratio, Observed GMR (90% CI) (CYP3A [10]; [17]): 1.38 (1.26, 1.52)
- oral bioavailability [11]: 31–72%

Structure (SMILES): Cc1nn(C)cc1S(=O)(=O)NC(=O)c1ccc(-n2ccc(OCC(C)(C)C(F)(F)F)n2)nc1N1C[C@@H](C)CC1(C)C [elexacaftor]
- effect on the activity of CYP3A (CYP3A [1]): no significant effect

Structure (SMILES): C#C[C@]1(O)CC[C@H]2[C@@H]3CCc4cc(O)ccc4[C@H]3CC[C@@]21C [ethinylestradiol]
- AUC Ratio, Ratio (Simulated/Observed) (CYP3A [2]; victim drug +/− ivacaftor): 1.07
- Cmax Ratio, Ratio (Simulated/Observed) (CYP3A [2]; victim drug +/− ivacaftor): 0.91
- AUC Ratio, Observed GMR (90% CI) (CYP3A [10]; [17]): 1.07 (1.00, 1.14)
- Cmax Ratio, Observed GMR (90% CI) (CYP3A [10]; [17]): 1.22 (1.10, 1.36)

Structure (SMILES): CC(C)(C)c1cc(C(C)(C)C)c(NC(=O)c2c[nH]c3ccccc3c2=O)cc1O [ivacaftor]
- logP ([4]; ivacaftor model input): 5.68
- fraction of unbound drug in plasma (fu) ([5]; ivacaftor model input): 0.001
- Observed AUC (0–12 h) (mean) [9, 18]: 12,100 ng∙h/mL
- Observed Cmax (mean) [9, 18]: 1270 ng/mL
- fraction metabolized by CYP3A4 (fmCYP3A4) (CYP3A4 [13]): 98%
- Tmax ([11]; human, in vivo): 2 to 6 h
- half-life ([11]; human, in vivo): 15 h

From paper PMC10222456, “Application of Physiologically Based Pharmacokinetic Modeling to Predict Drug–Drug Interactions between Elexacaftor/Tezacaftor/Ivacaftor and Tacrolimus in Lung Transplant Recipients” (Pharmaceutics, 2023)
